The values below are quoted from earlier work in US20110159080A1, “COMPOSITION COMPRISING LIPOSOME-ENTRAPPED DOXORUBICIN AND METHODS OF ADMINISTRATION” (priority 2008, published 2011).

In data set [1] the test system is recurrent stage III or IV ovarian cancer.
Data set [2] deals with primary or secondary platinum-resistant ovarian cancer. To be noted: bevacizumab 15 mg/kg every 21 days.
Data set [3] has as its system xenotransplant models of colon cancer. To be noted: nude (athymic) mice.
In data set [4] the test system is persistent or recurrent epithelial ovarian cancer.
In data set [5] the test system is platinum resistant advanced ovarian carcinoma. To be noted: human, in vivo.

Consider `N.N.O=C([O-])C1(C(=O)[O-])CCC1.[Pt+2]` [carboplatin], for which, in data set [1] (DOXIL 30 mg/m^2 plus carboplatin AUC 5 or carboplatin alone AUC 5, every 4 weeks, p=0.02), the response rate is given as 32%. Moreover, the “estimated median PFS” value in data set [1] (every 4 weeks) is on record as 8 months. Also, the “estimated median overall survival” value in data set [1] (every 4 weeks, p=0.02) is 18 months.

As to `CC[C@@]1(O)C(=O)OCc2c1cc1n(c2=O)Cc2cc3c(CN(C)C)c(O)ccc3nc2-1` [topotecan], the toxicity profile result in the data set with recurrent ovarian cancer (DOXIL 50 mg/m^2 every 4 weeks, topotecan 1.5 mg/m^2/day for 5 days every 3 weeks) was “significant myelosuppression and alopecia”. The “median OS” value in the data set with recurrent ovarian cancer (subset with platinum-sensitive disease, p=0.008) is 71.1 weeks. Also, in the data set on recurrent ovarian cancer (subset with platinum-sensitive disease, p=0.037), the “median PFS” value is 23.3 weeks.

Regarding “bevacizumab: recombinant humanized monoclonal IgG1 antibody that binds to and inhibits human vascular endothelial growth factor (VEGF)”, in data set [2], the “6-month PFS rate” value is recorded as 27% and the response rate was 16%. Besides, in data set [3], the “effect on metastatic disease progression” value is “inhibition of metastatic disease progression” and the “effect on microvascular growth” value was “reduction in microvascular growth”. Moreover, in data set [4] (62 eligible subjects), the “complete responses (number of subjects)” value is recorded as “two” and the “subjects surviving progression free for at least 6 months” value was 40.3%. Moreover, the “subjects with clinical response” value in data set [4] (bevacizumab 15 mg/kg IV every 21 days, 62 eligible subjects) is 21.0%. Further, in data set [4] (in vivo), the “Grade 3 adverse events: GI (number)” value is 3, the “Grade 3 adverse events: coagulation (number)” value was 1, the “Grade 3 adverse events: constitutional (number)” value is listed as 1 and the “Grade 3 adverse events: dyspnea (number)” value is given as 1. Besides, in data set [4] (in vivo), the “Grade 3 adverse events: hematologic (number)” value is listed as 1, the “Grade 3 adverse events: hepatic (number)” value is given as 1, the “Grade 3 adverse events: hypertension (number)” value is recorded as 6 and the “Grade 3 adverse events: pain (number)” value is 3. For the same molecule, in data set [4] (in vivo), the “Grade 3 adverse events: thromboembolism (number)” value is recorded as 1; the “Grade 4 adverse events: proteinuria (number)” value is 1; the “Grade 4 adverse events: pulmonary embolus (number)” value was 1; the “Grade 4 adverse events: vomiting and constipation (number)” value was 1. Further, in data set [4] (in vivo), the “median PFS” value is recorded as 4.7 months, the median overall survival is reported as 17 months and the median response duration is 10 months. Besides, in data set [5], the cases of perforation entry was “no cases of perforation”.
